Values quoted from earlier work as cited in patent US20240237652A1, “Biocidal Composition and Method” (ARXADA, LLC, priority 2021, published 2024).

Key:
[1] = neutral pH
[2] = tested on: bacteria, fungi, and yeast

## Zinc pyrithione [ZPT]
[1]
  solubility in water: 8 ppm

## O=c1[nH]sc2ccccc12 [BIT, 1,2-benzisothiazolin-3-one]
[2]
  amount required for a reliable and quick biocidal activity: ≤ 500 ppm
